Series [1] relates to H1299 cells. The experiment in a line: Superoxide dismutase (SOD) assay, cytosolic and mitochondrial. The note with it: +RT (6 Gy), 20 nM, compared to DM1+RT. The series is classed as cell-based, human. The procedure: Around 3×10^4 cells per well were seeded into each well of a six-well plate and cultured overnight. The cells treated with free drug (DM1 and DM1-NO), and drug loaded nanoparticles (DM1-NPs and DM1-NO-NPs) were given the same concentration of drug (20 nM) and irradiated with 6 Gy of radiation. The plates were then incubated for 24 h. After the treatment, the cells were rinsed with PBS, and the cell pellets were collected using a cell scraper. Cells were homogenized using a sonicator in ice-cold 20 mM 4-(2-hydroxyethyl)-1-piperazineethanesulfonic acid (HEPS) buffer (pH 7.2, containing 1 mM of ethylene glycol-bis(β-aminoethyl ether)-N,N,N′,N′-tetraacetic acid, also known as EGTA; Millipore Sigma, USA), […] of mannitol, and 70 mM sucrose. Following homogenization, a pellet was formed by centrifugation at 15,000×g for 15 minutes at 4° C. The supernatant was collected, and an assay was immediately performed to assess cytosolic SOD levels by comparing to a standard curve. To measure mitochondrial SOD levels, the pellet was resuspended in ice-cold PBS, and the sample was measured accordingly.

A short description of series [2]: NO release in solution with and without 6 Gy X-ray irradiation (Greiss assay). The series is classed as physicochemical. The note with it: for NO release: Greiss assay. The source says: (§1) FIGS. 1A and 1B are schemes illustrating how DM1-NO encapsulated PLGA-b-PEG nanoparticles (DM1-NO-NPs) can accumulate in tumors through the EPR effect. In the presence of radiation and/or reduced pH in endosomes/lysosomes, the S—N bond was broken, releasing DM1 and NO. DM1 inhibits microtubule assembly, arresting cells at the more radiosensitive G2/M phase. Meanwhile, NO can react with ROS to form radicals such as peroxynitrites, causing DNA and lipid damages. The combined effects enhance the efficacy of RT. […] Quantification was based on Greiss assay. PBS, cell culture medium (RPBI-1640), DM1, and DM1-NPs were tested as controls. FIG. 1D is a histogram showing the results of DLS analysis of DM1-NO-NPs in water. FIG. 1E is a plot showing the zeta potential of DM1-NO-NPs in water. FIG. 1F is a bar graph illustrating the stability of DM1-NO under ambient conditions. After synthesis, dry product of DM1-NO was kept at room temperature and the total amount of remaining NO was quantified using Griess assay on Day 0, 7, 14, and 21. FIG. 1G is plot illustrating the stability of DM1-NO in solutions. DM1-NO (20.09 μmol) was dissolved in PBS of different pH (5.5, 6.5, and 7.4). Time-dependent NO release was measured on a Sievers NOA 280i system, which assesses NO based on gas phase chemiluminescent reaction between NO and ozone. FIG. 1H is a line graph showing release profiles for DM1-NO-NPs, tested in PBS of different pH at 37° C. by Greiss assays. FIG. 1I is a histogram showing the results of DLS analysis of DM1-NPs. FIG. 1J is a plot showing the zeta potential of DM1-NPs. FIG. 1K is a series of representative images of clonogenic assays. H1299 cells were treated with 20 nM of DM1 and DM1-NO for 12 h, followed −X-ray irradiation (6 Gy). […]
NO concentration was assessed to determine the amount of DM1-NO prodrug loaded into the DM1-NO-NPs. […] Therefore, to quantify the overall NO amount, the total nitrite (NO2-) and nitrate (NO3-) concentrations in a NP solution cells) were measured using Nitrate/Nitrite Colorimetric assay (Cayman Chemical) by following the vendor's protocol. […]

Series [3] can be described thus: Stability of dry DM1-NO under ambient conditions (Griess assay). The note with it: powder form, 2 weeks' storage at room temperature. The format is physicochemical.
Excerpt: as §1, with “ozone.” for “ozone. FIG. 1H is a line graph showing release profiles for DM1-NO-NPs, tested in PBS of different pH at 37° C. by Greiss assays. FIG. 1I is a histogram showing the results of DLS analysis of DM1-NPs. FIG. 1J is a plot showing the zeta potential of DM1-NPs. FIG. 1K is a series of representative images of clonogenic assays. H1299 cells were treated with 20 nM of DM1 and DM1-NO for 12 h, followed −X-ray irradiation (6 Gy).”

Series [4] deals with H1299 cells. The experiment in a line: Clonogenic assay with X-ray irradiation, linear-quadratic model. The format is cell-based, human. As to the method: Around 3×10^5 of H1299 cells were plated in a series of 25 mm petri dishes in 5 mL of complete RMPI-1640 medium, and the cells were incubated for 24 h at 37° C. Once the cells were completely adhered to the bottom of the plate, the media was replaced with fresh RPMI-1640 containing DM1 or DM1-NO with a final concentration of 20 nM. After another 12 h of incubation, the cell cultures were irradiated by X-rays (320 kV) of different doses Immediately following the X-ray irradiation, the cell monolayers were trypsinized using 0.05% Trypsin/EDTA (Gibco, Life Technologies, USA). Single cells were collected and plated onto a 25 mm petri dish in 5 mL complete media (FIG. 1K). Each dish was then incubated for 21 days to allow colonies to form. After that, the media was removed and 0.5% crystal violet in 70% methanol was used to fixed and stain the existing colonies. The plates were sufficiently and carefully rinsed, and were dried at room temperature. Once dried, the colonies were counted manually under a microscope. When observed under the microscope, colonies of […] were said to be surviving colonies. The survival rate of these colonies was normalized to the plating efficiency of the untreated control cells. The mean and standard deviation of surviving colonies in each treatment group was calculated.
The potential of DM1-NO as a radiosensitizer was assessed by clonogenic assays. Briefly, DM1 or DM1-NO was incubated with H1299 cells, the cells were irradiated with X-rays (0-10 Gy), and the resulting cells were seeded onto a petri dish (FIG. 1K). Colonies consisting more than 50 cells after 3 weeks were counted, and the data fit to a linear-quadratic model (Table 3).

Series [5] can be described thus: Time-dependent NO release in PBS of different pH (Sievers NOA 280i chemiluminescence). The format is physicochemical. The source says:
FIGS. 1A and 1B are schemes illustrating how DM1-NO encapsulated PLGA-b-PEG nanoparticles (DM1-NO-NPs) can accumulate in tumors through the EPR effect. In the presence of radiation and/or reduced pH in endosomes/lysosomes, the S—N bond was broken, releasing DM1 and NO. DM1 inhibits microtubule assembly, arresting cells at the more radiosensitive G2/M phase. Meanwhile, NO can react with ROS to form radicals such as peroxynitrites, causing DNA and lipid damages. The combined effects enhance the efficacy of RT. […] Quantification was based on Greiss assay. PBS, cell culture medium (RPBI-1640), DM1, and DM1-NPs were tested as controls. FIG. 1D is a histogram showing the results of DLS analysis of DM1-NO-NPs in water. FIG. 1E is a plot showing the zeta potential of DM1-NO-NPs in water. FIG. 1F is a bar graph illustrating the stability of DM1-NO under ambient conditions. After synthesis, dry product of DM1-NO was kept at room temperature and the total amount of remaining NO was quantified using Griess assay on Day 0, 7, 14, and 21. FIG. 1G is plot illustrating the stability of DM1-NO in solutions. DM1-NO (20.09 μmol) was dissolved in PBS of different pH (5.5, 6.5, and 7.4). Time-dependent NO release was measured on a Sievers NOA 280i system, which assesses NO based on gas phase chemiluminescent reaction between NO and ozone. FIG. 1H is a line graph showing release profiles for DM1-NO-NPs, tested in PBS of different pH at 37° C. by Greiss assays. FIG. 1I is a histogram showing the results of DLS analysis of DM1-NPs. FIG. 1J is a plot showing the zeta potential of DM1-NPs. FIG. 1K is a series of representative images of clonogenic assays. H1299 cells were treated with 20 nM of DM1 and DM1-NO for 12 h, followed −X-ray irradiation (6 Gy). The resulting cells were plated for clonogenic assays. FIG. 1L is a plot showing UV-vis analysis of DM1-NO, PLGA-b-PEG and DM1-NO-NPs. FIG. 1M is a plot showing FT-IR analysis of DM1-NO, PLGA-b-PEG and DM1-NO-NPs. FIG. 1N is a plot showing the results of DLS analysis (hydrodynamic size) over time for DM1-NO-NPs that were incubated in PBS for 24 h.
DM1-NO was stable under ambient conditions in the powder form. According to Griess assay, less than 10% of the compound was degraded over 2 weeks' storage at room temperature (FIG. 1F). […] (FIG. 1G), and the degradation was accelerated at low pH (e.g. pH 6.5 or 5.5, FIG. 1G, Table 1), and under X-ray irradiation (FIG. 1C).

`COc1cc2cc(c1Cl)N(C)C(=O)C[C@@H](OC(=O)[C@H](C)N(C)C(=O)CCSN=O)[C@]1(C)OC1[C@H](C)[C@@H]1C[C@@](O)(NC(=O)O1)[C@H](OC)/C=C\C=C(/C)C2` (some centres unmarked) [DM1-NO]: in series [1], the “increase of cytosol SOD activity” value stood at 70.08% and the “increase of mitochondrial SOD activity” value came out at 24.36%. Besides, the “increase of NO release” value in series [2] (6 Gy X-ray irradiation applied to solution) was determined as 5.14 fold. In series [2] (before 6 Gy X-ray irradiation), the NO release came out at 3.68 µM. Besides, in series [2] (in the presence of 6 Gy X-ray irradiation), the NO release worked out at 18.88 µM. Moreover, the compound degraded entry in series [3] was “less than 10%”. For the same molecule, in series [4] (20 nM, 12 h, X-rays 0-10 Gy), the “D10 (radiation dose at 10% fractional survival)” value is recorded as 4.39 Gy, the “α (linear quadratic model best fit value)” value is given as 0.0765 and the “β (linear quadratic model best fit value)” value is listed as 0.0051. The “dose modifying factor at 10% factional survival (DMF10)” value in series [4] (relative to RT alone) stood at 1.23. In series [5] (PBS at 37° C., accelerated at low pH and under X-ray), the degradation in solution result is given as “gradually broke down”. In addition, in series [5] (PBS pH 5.5), the “Average NO Release (per μL of sample)” value is 1.29E−07 μmol NO/min. The “Average NO Release (per μL of sample)” value in series [5] (PBS pH 6.5) came to 7.81E−08 μmol NO/min. Also, the “Average NO Release (per μL of sample)” value in series [5] (PBS pH 7.4) was 7.83E−08 μmol NO/min.

For the origin of these results see patent US12570704B2, “Functionally modified maytansinoids and compositions and methods of use thereof” (University of Georgia Research Foundation, Inc., priority 2019, dated 2026).
